Measurements reported in the NIST ThermoML archive (doi:10.1016/j.jct.2018.12.019).
Numbers after ± are expanded uncertainties.

Legend:
[1] = 98 kPa, Liquid; for speed of sound: Frequency=3 MHz, Single path-length method; for mass density: Vibrating tube method
[2] = xn = mol fraction of the nth substance listed; conditions: 98 kPa, Liquid, x2 = 0; for speed of sound: Frequency=3 MHz, Single path-length method; for mass density: Vibrating tube method
[3] = excess molar enthalpy (molar enthalpy of mixing); xn = mol fraction of the nth substance listed; conditions: 298.15 K; 98 kPa; Liquid; Calvet calorimetry; x2 = 0

Cn1ccnc1 [1-methylimidazole]
[1]
Conditions | mass density [kg/m3] | speed of sound [m/s]
288.15 K | 1039.36 ± 0.83 | 1634.1 ± 1.4
298.15 K | 1030.52 ± 0.83 | 1596.5 ± 1.4
308.15 K | 1021.66 ± 0.83 | 1559 ± 1.4
318.15 K | 1012.76 ± 0.83 | 1521.8 ± 1.4
328.15 K | 1003.83 ± 0.83 | 1485 ± 1.4

CCO [ethanol]
[1]
Conditions | mass density [kg/m3] | speed of sound [m/s]
288.15 K | 793.68 ± 0.81 | 1176.9 ± 1.1
298.15 K | 785.14 ± 0.81 | 1142.7 ± 1.1
308.15 K | 776.48 ± 0.81 | 1108.8 ± 1.1
318.15 K | 767.68 ± 0.81 | 1075.2 ± 1.1
328.15 K | 758.65 ± 0.81 | 1041.9 ± 1.1

CCO [ethanol] + Cn1ccnc1
[2]
Conditions | mass density [kg/m3] | speed of sound [m/s]
288.15 K | 793.68 ± 0.81 | 1176.9 ± 1.1
298.15 K | 785.14 ± 0.81 | 1142.7 ± 1.1
308.15 K | 776.48 ± 0.81 | 1108.8 ± 1.1
318.15 K | 767.68 ± 0.81 | 1075.2 ± 1.1
328.15 K | 758.65 ± 0.81 | 1041.9 ± 1.1

Conditions | excess molar enthalpy [kcal/mol]
[3] | 0 ± 0.000239

CO [methanol]
[1]
Conditions | mass density [kg/m3] | speed of sound [m/s]
288.15 K | 796.13 ± 0.81 | 1135.7 ± 1.1
298.15 K | 786.75 ± 0.81 | 1102.6 ± 1.1
308.15 K | 777.29 ± 0.81 | 1069.8 ± 1.1
318.15 K | 767.71 ± 0.81 | 1037.4 ± 1.1
328.15 K | 757.97 ± 0.81 | 1005.3 ± 1.1

CO [methanol] + Cn1ccnc1
[2]
Conditions | mass density [kg/m3] | speed of sound [m/s]
288.15 K | 796.13 ± 0.81 | 1135.7 ± 1.1
298.15 K | 786.75 ± 0.81 | 1102.6 ± 1.1
308.15 K | 777.29 ± 0.81 | 1069.8 ± 1.1
318.15 K | 767.71 ± 0.81 | 1037.4 ± 1.1
328.15 K | 757.97 ± 0.81 | 1005.3 ± 1.1

CCCO [propan-1-ol]
[1]
Conditions | mass density [kg/m3] | speed of sound [m/s]
288.15 K | 807.5 ± 0.81 | 1239.5 ± 1
298.15 K | 799.53 ± 0.81 | 1205.2 ± 1
308.15 K | 791.44 ± 0.81 | 1171.1 ± 1
318.15 K | 783.18 ± 0.81 | 1137.3 ± 1
328.15 K | 774.7 ± 0.81 | 1103.8 ± 1

CCCO [propan-1-ol] + Cn1ccnc1
[2]
Conditions | mass density [kg/m3] | speed of sound [m/s]
288.15 K | 807.5 ± 0.81 | 1239.5 ± 1
298.15 K | 799.53 ± 0.81 | 1205.2 ± 1
308.15 K | 791.44 ± 0.81 | 1171.1 ± 1
318.15 K | 783.18 ± 0.81 | 1137.3 ± 1
328.15 K | 774.7 ± 0.81 | 1103.8 ± 1

Conditions | excess molar enthalpy [kcal/mol]
[3] | 0 ± 0.000239

CC(C)O [propan-2-ol]
[1]
Conditions | mass density [kg/m3] | speed of sound [m/s]
288.15 K | 789.18 ± 0.81 | 1173.2 ± 1.1
298.15 K | 780.86 ± 0.81 | 1138.4 ± 1.1
308.15 K | 772.26 ± 0.81 | 1103.3 ± 1.1
318.15 K | 763.3 ± 0.81 | 1067.9 ± 1.1
328.15 K | 753.91 ± 0.81 | 1031.9 ± 1.1

CC(C)O [propan-2-ol] + Cn1ccnc1
[2]
Conditions | mass density [kg/m3] | speed of sound [m/s]
288.15 K | 789.18 ± 0.81 | 1173.2 ± 1.1
298.15 K | 780.86 ± 0.81 | 1138.4 ± 1.1
308.15 K | 772.26 ± 0.81 | 1103.3 ± 1.1
318.15 K | 763.3 ± 0.81 | 1067.9 ± 1.1
328.15 K | 753.91 ± 0.81 | 1031.9 ± 1.1

Conditions | excess molar enthalpy [kcal/mol]
[3] | 0 ± 0.000239

O [water] + Cn1ccnc1
[2], 328.15 K
Conditions | mass density [kg/m3] | speed of sound [m/s]
– | 985.71 ± 0.8 | 1547.3 ± 1
